Test results published in patent publication US20220112309A1, “BISPECIFIC ANTIBODY AGAINST CD3 AND CD20 IN COMBINATION THERAPY FOR TREATING DIFFUSE LARGE B-CELL LYMPHOMA” (GENMAB A/S, priority 2020, published 2022).

Columns and labels:
Raji [1] = assay type: cell-based; details: 48 hours
Method: (§1) Briefly, human Burkitt lymphoma (Raji) and DLBCL (SU-DHL-4) cell lines were used as target cells. Cells were cultured in culture medium (RPMI 1640 with HEPES and L-Glutamine supplemented with 10% heat-inactivated donor bovine serum with iron, and 1% [v/v] penicillin/streptomycin) to which 2 mM L-glutamine and 1 mM sodium pyruvate were added, at 37° C., 5% CO2. T cells, isolated from human healthy donor buffy coats (Sanquin) by negative selection using the RosetteSep™ Human T Cell Enrichment Cocktail (Stemcell Technologies), followed by density centrifugation over a Ficoll gradient, both according to the manufacturer's instructions, were used as effector cells. Isolated cells were washed twice in phosphate buffered saline (PBS) and counted using acridine orange/propidium iodide (AO/PI) viability staining solution (Nexcelom Bioscience) on a Cellometer® Auto 2000 Cell Viability Counter. […] B-cell viability and T-cell activation were measured by flow cytometry (count of CD22-positive cells; expression of the T-cell activation markers CD69, CD25, programmed cell death protein 1 (PD-1), and CD107 [lysosomal associated membrane protein 1; LAMP-1] on CD4+ and CD8+ T cells). Absolute cell numbers were determined by adding Accucheck Counting beads (100 μL/well) (Thermofisher) and calculated as follows:
(§2) Correction factor=([bead count1+bead count2]/average bead countplate)
(§3) Absolute cell number=[cell countsample/correction factor] • The percentage cytotoxicity was calculated as follows:
(§4) % cytotoxicity=100−([absolute cell numbersample/absolute cell numberno antibody]×100%)

SU-DHL-4 [2] = assay type: cell-based; details: SU-DHL-4 cells, 48 hours
Method: as §1, §2, §3, §4

Raji [3] = assay: in vitro T-cell activation assay, T cells incubated with Raji cells; assay type: cell-based, human; details: Raji target cells, 48 hours
Method: as §1, with “follows: […]” for “follows:”

SU-DHL-4 [4] = assay: in vitro T-cell activation assay, T cells incubated with SU-DHL-4 cells; assay type: cell-based, human; details: SU-DHL-4 target cells, 48 hours
Method: as §1, with “follows: […]” for “follows:”

R/R B-NHL = assay: ongoing clinical trial of epcoritamab monotherapy (NCT03625037); assay type: in vivo
Description: Epcoritamab as monotherapy is currently in a clinical trial for the treatment of relapsed/refractory (R/R) B-NHL (ClinicalTrials.gov Identifier: NCT03625037).

[5] = gemcitabine and/or oxaliplatin at EC30 concentrations, with or without epcoritamab
[6] = epcoritamab 0.01 pg/mL-100 ng/mL, flow cytometry
[7] = gemcitabine 1 nM, oxaliplatin 0.3 μM
[8] = epcoritamab alone 0.01 pg/mL-100 ng/mL

| Molecule | cytotoxicity of B cells (Raji [1]; [5]) | cytotoxicity of B cells (SU-DHL-4 [2]; [5]) | T-cell activation (upregulation of CD69, CD25, PD-1, and LAMP-1 expression) (Raji [3]; [6]) | Epcoritamab-induced T-cell activation in the presence of gemcitabine, oxaliplatin, or the combination (Raji [3]; [7]) | T-cell activation (upregulation of CD69, CD25, PD-1, and LAMP-1 expression) (SU-DHL-4 [4]; [6]) | Epcoritamab-induced T-cell activation in the presence of gemcitabine, oxaliplatin, or the combination (SU-DHL-4 [4]; [7]) | T-cell-mediated cytotoxicity (decrease in the number of viable B cells) (Raji [1]; [8]) | T-cell-mediated cytotoxicity (decrease in the number of viable B cells) (SU-DHL-4 [2]; [8]) | dose-limiting toxicities (R/R B-NHL; human, in vivo) | tolerated dose (R/R B-NHL; monotherapy, R/R B-NHL patients, preliminary data) |
| --- | --- | --- | --- | --- | --- | --- | --- | --- | --- | --- |
| Nc1ccn(C2OC(CO)C(O)C2(F)F)c(=O)n1 (stereo not shown) [gemcitabine, 4-amino-1-[3,3-difluoro-4-hydroxy-5-(hydroxymethyl)oxolan-2-yl]-1,2-dihydropyrimidin-2-one, reference compound] | induced cytotoxicity of B cells | induced cytotoxicity of B cells |  |  |  |  |  |  |  |  |
| epcoritamab: IgG1 bispecific CD3xCD20 antibody; heavy and light chain pairs of SEQ ID NOs: 24 and 25, and 26 and 27; CAS 2134641-34-0 |  |  | concentration-dependent activation of both CD4+ (data not shown) and CD8+ T cells | not affected | concentration-dependent activation of both CD4+ (data not shown) and CD8+ T cells | not affected | concentration-dependent T-cell-mediated cytotoxicity | concentration-dependent T-cell-mediated cytotoxicity | no dose-limiting toxicities reported | tolerated at doses up to at least 48 mg, including 60 mg |
